From US20220267352A1, “RAPAMYCIN ANALOGS AND USES THEREOF” (Anakuria Therapeutics, Inc., priority 2021, published 2022)
pIC50: −log10 of the molar value.

Key:
[1] = test system: p-Akt 1/2/3 (Ser473) in MCF-7 cells; test: AlphaLISA Ultra pAKT assay; format: cell-based; conditions: Homo sapiens, 1.5 h; MCF7 cells, 90 min
Procedure: Example 56: AlphaLISA Ultra pAKT Assay
Assay Protocol: • 1. MCF-7 cells in Corning 3701 plate and incubate for 20˜24 hour. 16,000˜20,000 cells will be seeded in 36 μL medium per well. • 2. Change the culture medium with fresh medium and incubate for another 90 minutes. • 3. Add 12 μL (4×) compounds into the cell plate by HAMILTON. Final DMSO concentration is 0.5%. […] Aspirate 38 μL by HAMILTON, 10 μL rest per well. • 5. Add 10 μL 2× lysis buffer using HAMILTON; total volume in wells is 20 μL. Allow cells to shake for 30 min. Cover plate by plastic foil and store plate at −80° C. up to analysis. • 6. Thaw cell lysate at RT and transfer 10 μL lysate to assay plate (Optiplate-384). • 7. Add 5 μL acceptor beads into assay plate and incubation for 2 hours • 8. Add 5 μL donor beads and incubation for 2 hours • 9. Count the plate by EnSpire Multimode Plate Reader

[2] = test system: p-p70 S6 Kinase (Thr389) in MCF-7 cells; test: AlphaLISA Ultra pS6K1 assay; format: cell-based; conditions: Homo sapiens, 1.5 h; MCF7 cells, 90 min
Procedure: Example 55: AlphaLISA Ultra pS6K1 Assay
Assay Protocol: • 1. Seed MCF-7 cells in Corning 3701 plate and incubate for 20˜24 hour. 12,000˜16,000 cells will be seeded in 36 μL medium per well. • 2. Change the culture medium with fresh medium and incubate for another 2 hours. • 3. Add 12 μL (4×) compounds into the cell plate by HAMILTON. Final DMSO concentration is 0.5%. Incubate for 90 minutes. • 4. Aspirate 38 μL by HAMILTON, 10 μL rest per well. • 5. Add 10 μL 2× lysis buffer using HAMILTON; total volume in wells is 20 μL. Allow cells to shake for 30 min. Cover plate by plastic foil and store plate at −80° C. up to analysis. • 6. Thaw cell lysate at RT and transfer 10 μL lysate to assay plate (Optiplate-384). • 7. Add 5 μL acceptor beads into assay plate and incubation for 2 hours • 8. Add 5 μL donor beads and incubation for 2 hours • 9. Count the plate by EnSpire Multimode Plate Reader

Row | pIC50 [1] | pIC50 [2] | Structure (SMILES)
1 | – | > 9.00 | COCCO[C@@H]1CC[C@@H](C[C@@H](C)[C@@H]2CC(=O)[C@H](C)/C=C(\C)[C@@H](O)[C@@H](OC)C(=O)[C@H](C)C[C@H](C)/C=C/C=C/C=C(\C)C(OCc3cnccn3)C[C@@H]3CC[C@@H](C)[C@@](O)(O3)C(=O)C(=O)N3CCCC[C@H]3C(=O)O2)C[C@H]1OC (stereo partly drawn) [I-68, (1R,9S,12S,15R,16E,18R,19R,21R,23S,24E,26E,28E,32S,35R)-1,18-dihydroxy-19-methoxy-12-[(1R)-2-[(1S,3R,4R)-3-methoxy-4-(2-methoxyethoxy)cyclohexyl]-1-methyl-ethyl]-15,17,21,23,29,35-hexamethyl-30-(pyrazin-2-ylmethoxy)-11,36-dioxa-4-azatricyclo[30.3.1.0^4,9]hexatriaconta-16,24,26,28-tetraene-2,3,10,14,20-pentone]
2 | – | 8.00 to 9.00 | CO[C@@H]1C[C@H](C[C@@H](C)[C@@H]2CC(=O)[C@H](C)/C=C(\C)[C@@H](O)[C@@H](OC)C(=O)[C@H](C)C[C@H](C)/C=C/C=C/C=C(\C)[C@H](OCCOC3COC3)C[C@@H]3CC[C@@H](C)[C@@](O)(O3)C(=O)C(=O)N3CCCC[C@H]3C(=O)O2)CC[C@H]1O [I-71, (1R,9S,12S,15R,16E,18R,19R,21R,23S,24E,26E,28E,30R,32S,35R)-1,18-dihydroxy-12-[(1R)-2-[(1S,3R,4R)-4-hydroxy-3-methoxy-cyclohexyl]-1-methyl-ethyl]-19-methoxy-15,17,21,23,29,35-hexamethyl-30-[2-(oxetan-3-yloxy)ethoxy]-11,36-dioxa-4-azatricyclo[30.3.1.0^4,9]hexatriaconta-16,24,26,28-tetraene-2,3,10,14,20-pentone]
3 | – | > 9.00 | CO[C@@H]1C[C@H](C[C@@H](C)[C@@H]2CC(=O)[C@H](C)/C=C(\C)[C@@H](O)[C@@H](OC)C(=O)[C@H](C)C[C@H](C)/C=C/C=C/C=C(\C)[C@@H](OCCOC3COC3)C[C@@H]3CC[C@@H](C)[C@@](O)(O3)C(=O)C(=O)N3CCCC[C@H]3C(=O)O2)CC[C@H]1O [I-72, (1R,9S,12S,15R,16E,18R,19R,21R,23S,24E,26E,28E,30S,32S,35R)-1,18-dihydroxy-12-[(1R)-2-[(1S,3R,4R)-4-hydroxy-3-methoxy-cyclohexyl]-1-methyl-ethyl]-19-methoxy-15,17,21,23,29,35-hexamethyl-30-[2-(oxetan-3-yloxy)ethoxy]-11,36-dioxa-4-azatricyclo[30.3.1.0^4,9]hexatriaconta-16,24,26,28-tetraene-2,3,10,14,20-pentone]
4 | – | 7.00 to 8.00 | CO[C@@H]1/C(C)=C/[C@@H](C)C(=O)C[C@@H]([C@H](C)C[C@@H]2CC[C@@H](OP(C)(C)=O)[C@H](OC)C2)OC(=O)[C@@H]2CCCCN2C(=O)C(=O)[C@]2(O)O[C@@H](CC[C@H]2C)CC(OCCOCCOC2COC2)/C(C)=C/C=C/C=C/[C@@H](C)C[C@@H](C)C(=O)[C@@H]1OC (stereo partly drawn) [I-73, (1R,9S,12S,15R,16E,18R,19R,21R,23S,24E,26E,28E,32S,35R)-12-[(1R)-2-[(1S,3R,4R)-4-dimethylphosphoryloxy-3-methoxy-cyclohexyl]-1-methyl-ethyl]-1-hydroxy-18,19-dimethoxy-15,17,21,23,29,35-hexamethyl-30-[2-[2-(oxetan-3-yloxy)ethoxy]ethoxy]-11,36-dioxa-4-azatricyclo[30.3.1.04,9]hexatriaconta-16,24,26,28-tetraene-2,3,10,14,20-pentone]
5 | ≤ 6.00 | – | CO[C@@H]1/C(C)=C/[C@@H](C)C(=O)C[C@@H]([C@H](C)C[C@@H]2CC[C@@H](OCCO)[C@H](OC)C2)OC(=O)[C@@H]2CCCCN2C(=O)C(=O)[C@]2(O)O[C@@H](CC[C@H]2C)CC(OCCOC2COC2)/C(C)=C/C=C/C=C/[C@@H](C)C[C@@H](C)C(=O)[C@@H]1OC (stereo partly drawn) [I-87, (3S,6R,7E,9R,10R,12R,14S,15E,17E,19E,23S,26R,27R,34aS)-27-hydroxy-3-((R)-1-((1S,3R,4R)-4-(2-hydroxyethoxy)-3-methoxycyclohexyl)propan-2-yl)-9,10-dimethoxy-6,8,12,14,20,26-hexamethyl-21-(2-(oxetan-3-yloxy)ethoxy)-9,10,12,13,14,21,22,23,24,25,26,27,32,33,34,34a-hexadecahydro-3H-23,27-epoxypyrido[2,1-c][1]oxa[4]azacyclohentriacontine-1,5,11,28,29(4H,6H,31H)-pentaone]

Further lines, the compound ahead of its results:

Row | Structure (SMILES) | pIC50 [1] | pIC50 [2]
6 | CO[C@@H]1/C(C)=C/[C@@H](C)C(=O)C[C@@H]([C@H](C)C[C@@H]2CC[C@@H](OP(C)(C)=O)[C@H](OC)C2)OC(=O)[C@@H]2CCCCN2C(=O)C(=O)[C@]2(O)O[C@@H](CC[C@H]2C)CC(OCC2COCCO2)/C(C)=C/C=C/C=C/[C@@H](C)C[C@@H](C)C(=O)[C@@H]1OC (stereo partly drawn) [I-24, (1R,2R,4S)-4-((2R)-2-((3S,6R,7E,9R,10R,12R,14S,15E,17E,19E,23S,26R,27R,34aS)-21-((1,4-dioxan-2-yl)methoxy)-27-hydroxy-9,10-dimethoxy-6,8,12,14,20,26-hexamethyl-1,5,11,28,29-pentaoxo-1,4,5,6,9,10,11,12,13,14,21,22,23,24,25,26,27,28,29,31,32,33,34,34a-tetracosahydro-3H-23,27-epoxypyrido[2,1-c][1]oxa[4]azacyclohentriacontin-3-yl)propyl)-2-methoxycyclohexyl dimethylphosphinate] | ≤ 6.00 | –
7 | COCCO[C@@H]1CC[C@@H](C[C@@H](C)[C@@H]2CC(=O)[C@H](C)/C=C(\C)[C@@H](O)[C@@H](OC)C(=O)[C@H](C)C[C@H](C)/C=C/C=C/C=C(\C)[C@H](OC[C@H]3COCCO3)C[C@@H]3CC[C@@H](C)[C@@](O)(O3)C(=O)C(=O)N3CCCC[C@H]3C(=O)O2)C[C@H]1OC [I-63, (1R,9S,12S,15R,16E,18R,19R,21R,23S,24E,26E,28E,30R,32S,35R)-30-[[(2R)-1,4-dioxan-2-yl]methoxy]-1,18-dihydroxy-19-methoxy-12-[(1R)-2-[(1S,3R,4R)-3-methoxy-4-(2-methoxyethoxy)cyclohexyl]-1-methyl-ethyl]-15,17,21,23,29,35-hexamethyl-11,36-dioxa-4-azatricyclo[30.3.1.0^4,9]hexatriaconta-16,24,26,28-tetraene-2,3,10,14,20-pentone] | – | 8.00 to 9.00
8 | COCCO[C@@H]1CC[C@@H](C[C@@H](C)[C@@H]2CC(=O)[C@H](C)/C=C(\C)[C@@H](O)[C@@H](OC)C(=O)[C@H](C)C[C@H](C)/C=C/C=C/C=C(\C)[C@H](OC[C@@H]3COCCO3)C[C@@H]3CC[C@@H](C)[C@@](O)(O3)C(=O)C(=O)N3CCCC[C@H]3C(=O)O2)C[C@H]1OC [I-65, (1R,9S,12S,15R,16E,18R,19R,21R,23S,24E,26E,28E,30R,32S,35R)-30-[[(2S)-1,4-dioxan-2-yl]methoxy]-1,18-dihydroxy-19-methoxy-12-[(1R)-2-[(1S,3R,4R)-3-methoxy-4-(2-methoxyethoxy)cyclohexyl]-1-methyl-ethyl]-15,17,21,23,29,35-hexamethyl-11,36-dioxa-4-azatricyclo[30.3.1.0^4,9]hexatriaconta-16,24,26,28-tetraene-2,3,10,14,20-pentone] | – | 8.00 to 9.00
9 | CO[C@@H]1C[C@H](C[C@@H](C)[C@@H]2CC(=O)[C@H](C)/C=C(\C)[C@@H](O)[C@@H](OC)C(=O)[C@H](C)C[C@H](C)/C=C/C=C/C=C(\C)C(OCc3cnccn3)C[C@@H]3CC[C@@H](C)[C@@](O)(O3)C(=O)C(=O)N3CCCC[C@H]3C(=O)O2)CC[C@H]1OCCO (stereo partly drawn) [I-67, (1R,9S,12S,15R,16E,18R,19R,21R,23S,24E,26E,28E,32S,35R)-1,18-dihydroxy-12-[(1R)-2-[(1S,3R,4R)-4-(2-hydroxyethoxy)-3-methoxy-cyclohexyl]-1-methyl-ethyl]-19-methoxy-15,17,21,23,29,35-hexamethyl-30-(pyrazin-2-ylmethoxy)-11,36-dioxa-4-azatricyclo[30.3.1.0^4,9]hexatriaconta-16,24,26,28-tetraene-2,3,10,14,20-pentone] | – | > 9.00
